Test results taken from patent publication EP4772502A1, “ARYL OR HETEROARYL SUBSTITUTED CARBAMATE COMPOUND AND DERIVATIVE AND USE THEREOF” (Shenzhen Zhongge Biological Technology Co., Ltd., priority 2023, dated 2025).

Legend:
[1] = biological target: T1, AMPKα1β1γ1 (Homo sapiens, UniProt Q13131+Q9Y478); test: In vitro assay for AMPK (α1β1γ1) enzyme agonist activity (TR-FRET); assay type: biochemical; details: 1 h; activity of 1 µM A769662 set as 100%; read-out: Top value (%)
T1 construct: purchased CARNA 02-113
T1 sequence (Q13131 whole entry): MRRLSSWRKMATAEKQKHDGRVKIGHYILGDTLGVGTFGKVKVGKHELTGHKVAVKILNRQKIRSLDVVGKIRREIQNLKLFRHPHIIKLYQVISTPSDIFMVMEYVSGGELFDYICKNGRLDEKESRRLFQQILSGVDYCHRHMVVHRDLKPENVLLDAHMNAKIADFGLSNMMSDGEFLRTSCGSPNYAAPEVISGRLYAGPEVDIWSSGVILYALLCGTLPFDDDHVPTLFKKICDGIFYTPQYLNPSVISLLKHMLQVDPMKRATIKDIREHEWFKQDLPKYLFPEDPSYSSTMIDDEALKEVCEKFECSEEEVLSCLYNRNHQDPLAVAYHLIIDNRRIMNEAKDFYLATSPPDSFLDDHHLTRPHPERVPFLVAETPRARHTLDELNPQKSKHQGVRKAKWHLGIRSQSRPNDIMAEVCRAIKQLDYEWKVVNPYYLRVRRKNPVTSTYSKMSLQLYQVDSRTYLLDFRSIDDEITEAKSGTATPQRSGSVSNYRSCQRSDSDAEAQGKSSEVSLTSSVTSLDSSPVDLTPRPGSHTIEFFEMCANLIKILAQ
T1 sequence (Q9Y478 whole entry): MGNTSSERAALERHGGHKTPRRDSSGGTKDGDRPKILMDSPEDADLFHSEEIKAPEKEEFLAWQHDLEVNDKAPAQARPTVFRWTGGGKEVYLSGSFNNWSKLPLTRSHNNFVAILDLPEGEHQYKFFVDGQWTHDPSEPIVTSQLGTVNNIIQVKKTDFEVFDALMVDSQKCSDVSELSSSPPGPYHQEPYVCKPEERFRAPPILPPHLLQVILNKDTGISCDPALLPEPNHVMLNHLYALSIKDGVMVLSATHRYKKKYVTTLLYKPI
T1 sequence (P54619 whole entry partner): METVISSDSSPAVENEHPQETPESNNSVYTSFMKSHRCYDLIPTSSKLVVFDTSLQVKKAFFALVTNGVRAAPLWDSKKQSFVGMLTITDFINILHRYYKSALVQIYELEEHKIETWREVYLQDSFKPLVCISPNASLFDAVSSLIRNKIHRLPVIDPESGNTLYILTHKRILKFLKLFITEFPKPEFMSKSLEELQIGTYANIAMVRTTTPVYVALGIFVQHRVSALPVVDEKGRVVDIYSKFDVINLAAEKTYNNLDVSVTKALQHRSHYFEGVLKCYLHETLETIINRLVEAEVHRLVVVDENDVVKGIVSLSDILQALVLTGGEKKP
Description: Test example 1: In vitro assay for AMPK (α1β1γ1) enzyme agonist activity
Test compounds were dissolved in DMSO to prepare 10 mM stock solution, which was then diluted to the predetermined test concentrations using kinase buffer (50 mM HEPES, 1 mM EDTA, 10 mM MgCl2, 0.01% Brij-35, pH = 7.5). Into a 384-well plate were added 5 µL of AMPKα1β1γ1 (CARNA, 02-113), 2.5 µL of the diluted test compound solution, and 2.5 µL of a mixture of […] and ATP, resulting in the following final concentrations: AMPKα1β1γ1 at 1.6 mg/L, […] at 5 nM, and ATP at 0.1 mM. The components were mixed evenly, and reacted at room temperature for 1 h. Subsequently, 5 µL of LANCE Detection Buffer (CR97-100, PerkinElmer) containing 40 mM EDTA was added. After standing for 5 min, 5 µL of 4× Eu-anti-phospho-CREB Antibody (TRF0200-M, PerkinElmer) was added, and the mixture was allowed to stand at room temperature for 1 h. The values of samples in each well were read using a microplate reader in TR-FRET mode (excitation wavelength: 320 nm; emission wavelengths: 665 nm and 615 nm). By comparing the values with those of the blank control group (1% DMSO) and the positive control group (1 µM A769662), the relative activity of AMPKα1β1γ1 at each test compound concentration (4.57 nM, 13.72 nM, 41.15 nM, 123.46 nM, 370.37 nM, 1111.11 nM, 3333.33 nM, and 10000 nM) was calculated, with the activity of 1 µM A769662 set as 100%. The data were analysed in GraphPad Prism 9 using a Dose-response-Stimulation four-parameter regression model to obtain the Top and EC50 values for the test compounds.

[2] = system: AMPK; details: Tamura et al., Bioorganic & Medicinal Chemistry Letters, Vol. 68, 2022, 128769; cited from earlier work

O=C(Nc1cc(Cl)c(C#CC2(O)CCC2)s1)O[C@@H]1CO[C@H]2[C@@H]1OC[C@H]2O [Compound 28]
Emax [1]: 70 to 100%

O=C(Nc1cc(Cl)c(-c2ccc(C3(O)CCC3)cc2)s1)O[C@@H]1CO[C@H]2[C@@H]1OC[C@H]2O [compound 7]
Emax [1]: 200 to 300%

O=C(Nc1cc(Cl)c(C#Cc2ccccc2)s1)O[C@@H]1CO[C@H]2[C@@H]1OC[C@H]2O [compound 17]
Emax [1]: 200 to 300%

O=C(Nc1cc(Cl)c(-c2ccc(N3CCCC3)cc2)s1)O[C@@H]1CO[C@H]2[C@@H]1OC[C@H]2O [compound 14]
Emax [1]: 70 to 100%

COc1ccc(-c2sc(NC(=O)O[C@@H]3CO[C@H]4[C@@H]3OC[C@H]4O)cc2Cl)cc1 [compound 10]
Emax [1]: 200 to 300%

CCc1cc(NC(=O)O[C@@H]2CO[C@H]3[C@@H]2OC[C@H]3O)sc1-c1ccc(C2(CO)CC2)cc1 [Compound 40]
Emax [1]: 100 to 150%

O=C(Nc1cc(Cl)c(-c2ccc(OCCCN3CCOCC3)cc2)s1)O[C@@H]1CO[C@H]2[C@@H]1OC[C@H]2O [compound 23]
Emax [1]: ≥ 300%

O=C(Nc1cc(-c2ccc(C3(CO)CC3)cc2)cs1)O[C@@H]1CO[C@H]2[C@@H]1OC[C@H]2O [compound 2]
Emax [1]: 150 to 200%

O=C(Nc1cc(Cl)c(-c2ccc(C3(CO)CC3)cc2)s1)O[C@H]1CC[C@H](C(=O)O)CC1 [Compound 38]
Emax [1]: 150 to 200%

CS(=O)(=O)c1ccc(-c2ccc(-c3sc(NC(=O)O[C@@H]4CO[C@H]5[C@@H]4OC[C@H]5O)cc3Cl)cc2)cc1 [compound 19]
Emax [1]: 150 to 200%

O=C(Nc1cc(Cl)c(-c2ccc3c(ccn3C3CC3)c2)s1)O[C@@H]1CO[C@H]2[C@@H]1OC[C@H]2O [compound 18]
Emax [1]: 150 to 200%

O=C(Nc1cc(Cl)c(-c2ccc(-c3ccccc3O)cc2)s1)OCCCO [Compound 42]
Emax [1]: 150 to 200%

Cn1ccc2cc(-c3sc(NC(=O)O[C@@H]4CO[C@H]5[C@@H]4OC[C@H]5O)cc3Cl)ccc21 [compound 5]
Emax [1]: 150 to 200%

Cn1ccc2cc(-c3sc(NC(=O)OCCCO)cc3Cl)ccc21 [compound 15]
Emax [1]: 70 to 100%

O=C(Nc1cc(Cl)c(-c2ccc(N3CCOCC3)cc2)s1)O[C@@H]1CO[C@H]2[C@@H]1OC[C@H]2O [compound 9]
Emax [1]: 150 to 200%

O=C(Nc1cc(Cl)c(-c2ccc(C3(CO)CC3)cc2)s1)O[C@@H]1CO[C@H]2[C@@H]1OC[C@H]2O [compound 3]
Emax [1]: 200 to 300%

O=C(Nc1cc(Cl)c(C#Cc2ccccc2O)s1)O[C@@H]1CO[C@H]2[C@@H]1OC[C@H]2O [compound 20]
Emax [1]: ≥ 300%

NCCCOc1ccc(-c2sc(NC(=O)O[C@@H]3CO[C@H]4[C@@H]3OC[C@H]4O)cc2Cl)cc1 [Compound 31]
Emax [1]: 150 to 200%

O=C(Nc1cc(Cl)c(-c2ccc(-c3ccccc3)cc2)s1)O[C@@H]1CO[C@H]2[C@@H]1OC[C@H]2O [compound 4]
Emax [1]: 150 to 200%

O=C(Nc1cc(C2CC2)c(-c2ccc(C3(CO)CC3)cc2)s1)O[C@@H]1CO[C@H]2[C@@H]1OC[C@H]2O [compound 22]
Emax [1]: 150 to 200%

O=C(Nc1cc(-c2ccc(C3(CO)CC3)cc2)c(Cl)s1)O[C@@H]1CO[C@H]2[C@@H]1OC[C@H]2O [compound 1]
Emax [1]: 200 to 300%

O=C(Nc1ncc(-c2ccc(-c3ccccc3)cc2)s1)O[C@@H]1CO[C@H]2[C@@H]1OC[C@H]2O [compound 11]
AMPK agonist activity [2]: no AMPK agonist activity

Cc1cc(NC(=O)O[C@@H]2CO[C@H]3[C@@H]2OC[C@H]3O)sc1-c1ccc(C2(CO)CC2)cc1 [compound 8]
Emax [1]: 200 to 300%

CN1CCC(c2ccc(-c3sc(NC(=O)O[C@@H]4CO[C@H]5[C@@H]4OC[C@H]5O)cc3Cl)cc2)CC1 [compound 24]
Emax [1]: 150 to 200%

O=C(Nc1cc(Cl)c(-c2ccc(C3(CO)CC3)cc2)s1)O[C@H]1CC[C@H](CO)CC1 [Compound 39]
Emax [1]: 100 to 150%

O=C(Nc1cc(Cl)c(-c2ccc(-c3ccccc3O)cc2)s1)O[C@@H]1CO[C@H]2[C@@H]1OC[C@H]2O [compound 6]
Emax [1]: 200 to 300%

NCCCc1ccc(-c2sc(NC(=O)O[C@@H]3CO[C@H]4[C@@H]3OC[C@H]4O)cc2Cl)cc1 [Compound 32]
Emax [1]: 100 to 150%

CCOC(=O)[C@H]1CC[C@H](OC(=O)Nc2cc(Cl)c(-c3ccc(C4(CO)CC4)cc3)s2)CC1 [Compound 37]
Emax [1]: 70 to 100%

O=C(Nc1csc(-c2ccc(C3(CO)CC3)cc2)c1)O[C@@H]1CO[C@H]2[C@@H]1OC[C@H]2O [compound 13]
Emax [1]: 200 to 300%
